Results published in US20100273714A1, “PEPTIDE COMPOUNDS FOR TREATING REFRACTORY STATUS EPILEPTICUS” (SCHWARZ PHARMA AG, priority 2006, published 2010).

Columns and labels:
[1] = tested on: status epilepticus in the rat lithium/pilocarpine model; assay: Lithium/pilocarpine model of status epilepticus; assay type: in vivo, Rats
[2] = tested on: self-sustaining status epilepticus (SSSE) in perforant path stimulated rats; assay: Perforant path stimulation model of self-sustaining status epilepticus (acute seizure activity); assay type: in vivo, Male Wistar rats
Experimental: Male Wistar rats were implanted with a stimulating electrode into the angular bundle of the perforant path and a recording electrode into the granule cell layer of the dentate gyrus. Perforant path stimulation (PPS) was delivered for 30 or 60 minutes with the following parameters: 10 s, 20 Hz trains of 1 ms, 30 V pulses delivered every minute together with continuous 2 Hz stimulation with the same parameters.
(§1) The following indices were used to quantify seizure activity: cumulative seizure time (duration of SSSE, subtracting interictal time) and the number of seizure episodes. In addition the number of spontaneous seizures was measured 6 months following induction of SSSE in order to assess status epilepticus induced epileptogenesis.

[3] = tested on: status epilepticus induced epileptogenesis (spontaneous recurrent seizures) in perforant path stimulated rats; assay: Long term (disease-modifying) effects: spontaneous recurrent seizures at least 6 months after SSSE induction, EEG/video monitoring; assay type: in vivo; details: for spike frequency: early treatment, controls 9534±1114; for number of spontaneous recurrent seizures (SRSs) per week: treatment 10 min after perforant path stimulation, vehicle 110±8; for number of seizures per week: not statistically significant
Experimental: as §1
SSSE was induced in rats as described in Example 1. After SSSE induction, and at least 6 months wait (“silent period”) the animals were placed in EEG/telemetry/videotape continuously for two weeks for chronic EEG and video monitoring, but the second week, which was more remote from anaesthesia and surgery, was used to calculate seizure frequency (24 hours/day×7). Electrographic seizures were captured by the Harmony software, and were confirmed by offline manual review of the EEG and videotapes. The following indices were counted: total number of spikes of seizures for 7 days of observation, mean seizure duration, light/dark distribution.

[4] = tested on: self-sustaining status epilepticus (SSSE) in perforant path stimulated rats; details: Mazarati et al. 1999, cited from earlier work; for effectiveness against SSSE, delayed administration (in words): administration delayed / later in status epilepticus; for effectiveness against SSSE, early administration (in words): given before or at onset of SSSE / within the first 10 min of status epilepticus
[5] = 50 mg/kg i.p., treatment initiated 40 minutes after PPS, FIG. 1
[6] = 50 mg/kg, administered 40 min after onset of SSSE
[7] = given 10 min after perforant path stimulation, doses 10 mg/kg and above

## COC[C@@H](NC(C)=O)C(=O)NCc1ccccc1 [lacosamide, (R)-2-acetamido-N-benzyl-3-methoxypropionamide]
[1]; 50 mg/kg, 10 minutes after onset of status epilepticus
  motor seizure symptoms (in words): reduced motor seizure symptoms
[2]; [5]
  cumulative seizure duration (in words): substantial reduction
  seizure frequency (in words): substantial reduction
[2]; [6]
  reduction in cumulative seizure duration: 40%
  reduction in seizure frequency: 40%
[2]; given 10 min after perforant path stimulation
  anticonvulsant effect (in words): effective as an anticonvulsant
[2]; [7]
  cumulative time spent seizing after treatment (in words): reduced
  number of seizures (in words): reduced the number of seizures
[2]; late treatment, 40 min after perforant path stimulation
  number of seizures (in words): non-significant reduction
[3]; 3 mg/kg group
  spike frequency: 7557±1945 spikes/week
[3]; 3 mg/kg
  number of spontaneous recurrent seizures (SRSs) per week: 85±5 SRS/week
[3]; 10 mg/kg
  number of spontaneous recurrent seizures (SRSs) per week: 66±8 SRS/week
[3]; 10 mg/kg, treatment 40 min after perforant path stimulation, control 110±8
  number of seizures per week: 100±7 seizures per week
[3]; 30 mg/kg group
  spike frequency: 2969±542 spikes/week
[3]; 30 mg/kg group, treatment 40 min after perforant path stimulation
  median number of seizures: 0
[3]; 30 mg/kg
  number of spontaneous recurrent seizures (SRSs) per week: 42±8 SRS/week
[3]; 30 mg/kg, treatment 40 min after perforant path stimulation, control 110±8
  number of seizures per week: 67±67 seizures per week
[3]; 50 mg/kg group
  spike frequency: 2588±370 spikes/week
[3]; 50 mg/kg group, treatment 40 min after perforant path stimulation
  median number of seizures: 0
[3]; 50 mg/kg
  number of spontaneous recurrent seizures (SRSs) per week: 34±6 SRS/week
[3]; 50 mg/kg, treatment 40 min after perforant path stimulation, control 110±8
  number of seizures per week: 45±29 seizures per week
[3]; 30-50 mg/kg, 6 months after induction of SSSE, vehicle 100%
  percentage of rats developing chronic epilepsy / spontaneous recurrent seizures: 30%
[3]; 30-50 mg/kg, after six months, vehicle average 110 seizures per week
  reduction of number of seizures per week (seizure frequency): 60%
[3]; "mg/kg" group (dose not given)
  spike frequency: 3536±380 spikes/week
[3]; treatment 40 min after perforant path stimulation, two higher dosage groups combined, control 6/6, p<0.05
  number of animals showing spontaneous recurrent seizures: 3/9
[3]; treatment 40 min after perforant path stimulation, two highest treatment groups combined, control 110±8
  seizure numbers per week: 55±32 seizures per week

## O=C1NC(=O)C(c2ccccc2)(c2ccccc2)N1 [phenytoin]
[4]
  effectiveness against SSSE, delayed administration (in words): lost their effectiveness
  effectiveness against SSSE, early administration (in words): highly effective

## CN1C(=O)CN=C(c2ccccc2)c2cc(Cl)ccc21 [diazepam]
[4]
  effectiveness against SSSE, delayed administration (in words): lost their effectiveness
  effectiveness against SSSE, early administration (in words): highly effective
[1]; administered 15 min after onset of status epilepticus
  efficacy of diazepam alone (in words): ineffective
